The target of one assay is T1, LRRK2 G2019S (Homo sapiens, UniProt Q5S007, G2019S).
T1 construct: purchased Life Technologies PV4881
Put plainly: LRRK2 Kinase Activity Assay (LanthaScreen TR-FRET), G2019S. The assay is classed as biochemical. As to conditions: recombinant G2019S-LRRK2, 25 μM ATP, 400 nM LRRKtide, 60 min; class symbols. On the procedure: LRRK2 kinase activity was measured using a LanthaScreen™ Kinase Activity Assay from ThermoFisher Scientific. Recombinant wild type or G2019S-LRRK2 protein (Life Technologies, PR8604B or PV4881, respectively), was incubated with a fluorescein-labeled peptide substrate called LRRKtide that is based upon ezrin/radixin/moesin (ERM) (Life Technologies, PV4901) in the presence of ATP and serially diluted compound. […] Compound-dependent inhibition of the TR-FRET signal was used to generate a concentration-response curve for IC50 determination.
After 60 min incubation at room temperature, the reaction was stopped by addition of 10 μL of 2×stop solution containing a final concentration of 2 nM anti-pERM antibody and 10 mM EDTA.

For the next assay, the target named is T2, LRRK2 WT (Homo sapiens, UniProt Q5S007).
T2 construct: purchased Life Technologies PR8604B
T2 sequence (Q5S007 whole entry): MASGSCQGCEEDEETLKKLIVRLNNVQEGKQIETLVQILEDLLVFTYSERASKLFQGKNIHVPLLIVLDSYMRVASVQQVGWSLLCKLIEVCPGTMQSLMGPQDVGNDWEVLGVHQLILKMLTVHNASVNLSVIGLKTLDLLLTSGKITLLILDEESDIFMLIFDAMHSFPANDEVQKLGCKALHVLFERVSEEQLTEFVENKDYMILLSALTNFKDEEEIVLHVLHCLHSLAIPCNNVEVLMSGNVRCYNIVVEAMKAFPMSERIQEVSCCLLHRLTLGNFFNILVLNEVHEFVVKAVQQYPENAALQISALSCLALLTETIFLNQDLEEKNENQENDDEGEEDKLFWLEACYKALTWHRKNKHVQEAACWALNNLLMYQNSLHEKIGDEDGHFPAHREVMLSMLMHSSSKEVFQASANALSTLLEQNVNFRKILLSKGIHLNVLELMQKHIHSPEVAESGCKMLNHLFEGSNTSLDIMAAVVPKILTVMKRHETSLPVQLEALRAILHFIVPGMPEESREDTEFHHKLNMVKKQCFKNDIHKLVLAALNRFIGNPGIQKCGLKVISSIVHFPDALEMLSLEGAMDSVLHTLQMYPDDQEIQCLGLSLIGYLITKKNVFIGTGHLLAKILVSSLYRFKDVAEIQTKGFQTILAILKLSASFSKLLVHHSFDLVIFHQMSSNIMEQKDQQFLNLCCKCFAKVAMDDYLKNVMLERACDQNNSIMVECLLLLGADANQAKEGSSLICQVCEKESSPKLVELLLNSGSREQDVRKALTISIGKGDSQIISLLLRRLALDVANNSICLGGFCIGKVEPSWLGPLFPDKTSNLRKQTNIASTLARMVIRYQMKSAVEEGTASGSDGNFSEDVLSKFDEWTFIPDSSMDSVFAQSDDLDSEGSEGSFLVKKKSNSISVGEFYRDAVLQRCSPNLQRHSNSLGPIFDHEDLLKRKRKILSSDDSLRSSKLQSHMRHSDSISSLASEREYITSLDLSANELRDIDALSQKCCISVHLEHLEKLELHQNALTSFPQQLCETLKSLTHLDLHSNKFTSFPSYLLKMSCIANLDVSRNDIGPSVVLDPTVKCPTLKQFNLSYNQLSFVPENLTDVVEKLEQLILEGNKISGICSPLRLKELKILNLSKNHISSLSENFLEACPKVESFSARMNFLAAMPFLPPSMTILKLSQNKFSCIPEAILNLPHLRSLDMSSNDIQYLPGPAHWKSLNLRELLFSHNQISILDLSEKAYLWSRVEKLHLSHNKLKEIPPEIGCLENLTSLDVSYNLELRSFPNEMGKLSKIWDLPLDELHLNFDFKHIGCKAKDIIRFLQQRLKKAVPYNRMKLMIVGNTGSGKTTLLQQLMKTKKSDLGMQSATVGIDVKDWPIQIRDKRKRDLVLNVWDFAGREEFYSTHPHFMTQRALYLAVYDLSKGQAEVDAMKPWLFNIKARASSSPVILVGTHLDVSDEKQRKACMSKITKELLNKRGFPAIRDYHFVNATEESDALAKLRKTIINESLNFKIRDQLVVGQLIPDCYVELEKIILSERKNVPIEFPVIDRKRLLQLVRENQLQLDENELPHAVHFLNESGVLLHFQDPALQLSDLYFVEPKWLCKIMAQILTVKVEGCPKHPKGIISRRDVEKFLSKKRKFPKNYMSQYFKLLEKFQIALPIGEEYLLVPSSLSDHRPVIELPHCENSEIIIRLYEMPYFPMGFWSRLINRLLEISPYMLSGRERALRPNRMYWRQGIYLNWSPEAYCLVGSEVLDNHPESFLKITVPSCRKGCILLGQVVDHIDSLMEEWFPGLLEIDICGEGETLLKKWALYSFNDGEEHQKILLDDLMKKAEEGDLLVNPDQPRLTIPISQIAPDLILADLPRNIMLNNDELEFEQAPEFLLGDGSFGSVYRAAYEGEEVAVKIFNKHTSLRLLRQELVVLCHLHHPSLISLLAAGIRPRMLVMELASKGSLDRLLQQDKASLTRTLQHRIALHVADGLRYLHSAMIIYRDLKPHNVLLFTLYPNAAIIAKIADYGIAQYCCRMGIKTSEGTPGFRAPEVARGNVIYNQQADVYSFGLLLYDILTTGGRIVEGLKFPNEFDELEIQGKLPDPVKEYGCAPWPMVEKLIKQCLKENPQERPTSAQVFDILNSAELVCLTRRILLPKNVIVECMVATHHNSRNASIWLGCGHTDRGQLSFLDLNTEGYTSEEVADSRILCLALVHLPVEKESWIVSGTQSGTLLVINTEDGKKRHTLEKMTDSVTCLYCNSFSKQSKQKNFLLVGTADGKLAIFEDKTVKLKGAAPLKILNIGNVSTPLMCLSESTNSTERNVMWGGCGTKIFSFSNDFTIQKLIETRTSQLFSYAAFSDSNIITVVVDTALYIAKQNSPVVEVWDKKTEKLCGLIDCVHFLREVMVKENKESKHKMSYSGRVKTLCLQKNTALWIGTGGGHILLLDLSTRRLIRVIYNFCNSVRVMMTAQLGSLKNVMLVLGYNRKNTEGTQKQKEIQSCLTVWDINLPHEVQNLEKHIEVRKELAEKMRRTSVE
The assay is described as follows: LRRK2 Kinase Activity Assay (LanthaScreen TR-FRET), wild type. The assay is classed as biochemical. As to conditions: recombinant wild type LRRK2, 25 μM ATP, 400 nM LRRKtide, 60 min; class symbols. A digest of the protocol: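 Recombinant wild-type or G2019S LRRK2 incubated with fluorescein-labeled LRRKtide (ERM-based) peptide, ATP and serially diluted compound for 60 min at room temperature.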

Consider eleven compounds from US20230148214A1, “INDAZOLES AND AZAINDAZOLES AS LRRK2 INHIBITORS” (ESCAPE Bio, Inc., priority 2020, published 2023).

SMILES strings stand for the structures. Some results are limits rather than exact numbers.

T1 sequence (Q5S007 whole entry G2019S): as the sequence (Q5S007 whole entry) above, with G2019S counted along it

Regarding `N#Cc1ccc2c(c1)CC[C@@H]2Oc1ccc2[nH]nc(-c3cnoc3)c2c1` (single isomer, unassigned) [Example 5, enantiomer 1, 1-((3-(Isoxazol-4-yl)-1H-indazol-5-yl)oxy)-2,3-dihydro-1H-indene-5-carbonitrile], the IC50 on LRRK2 G2019S and on LRRK2 WT was < 100 nM each time.

Regarding `N#Cc1ccc2c(c1)CCC[C@@H]2Nc1ccc2[nH]nc(-c3cnoc3)c2c1` (single isomer, unassigned) [Example 6, enantiomer 1, 5-((3-(Isoxazol-4-yl)-1H-indazol-5-yl)amino)-5,6,7,8-tetrahydronaphthalene-2-carbonitrile], the IC50 at LRRK2 G2019S and at LRRK2 WT was < 100 nM each time.

As to `N#Cc1ccc2c(c1)CCC[C@@H]2Nc1ccc2[nH]nc(-c3cnoc3)c2c1` (single isomer, unassigned) [Example 6, enantiomer 2, 5-((3-(Isoxazol-4-yl)-1H-indazol-5-yl)amino)-5,6,7,8-tetrahydronaphthalene-2-carbonitrile], the IC50 was < 100 nM at LRRK2 G2019S and 100 to 1000 nM at LRRK2 WT.

As to `N#Cc1cnc2c(c1)CCC[C@@H]2Nc1ccc2[nH]nc(-c3cnoc3)c2c1` (single isomer, unassigned) [Example 7, enantiomer 1, 8-((3-(Isoxazol-4-yl)-1H-indazol-5-yl)amino)-5,6,7,8-tetrahydroquinoline-3-carbonitrile], the IC50 lay in the range of 100 to 1000 nM on LRRK2 G2019S and 1000 to 10000 nM at LRRK2 WT.

Take `N#Cc1cnc2c(c1)CCC[C@@H]2Nc1ccc2[nH]nc(-c3cnoc3)c2c1` (single isomer, unassigned) [Example 7, enantiomer 2, 8-((3-(Isoxazol-4-yl)-1H-indazol-5-yl)amino)-5,6,7,8-tetrahydroquinoline-3-carbonitrile]: the concentration for half-maximal inhibition (IC50) on LRRK2 G2019S and on LRRK2 WT was < 100 nM in each case.

Regarding `N#Cc1ccc2c(c1)CC[C@@H]2Nc1ccc2[nH]nc(-c3cnoc3)c2c1` (single isomer, unassigned) [Example 8, enantiomer 1, 1-((3-(Isoxazol-4-yl)-1H-indazol-5-yl)amino)-2,3-dihydro-1H-indene-5-carbonitrile], the IC50 at LRRK2 G2019S and on LRRK2 WT was < 100 nM each time.

In the case of `N#Cc1ccc2c(c1)CC[C@@H]2Nc1ccc2[nH]nc(-c3cnco3)c2c1` (single isomer, unassigned) [Example 9, enantiomer 1, 1-((3-(Oxazol-5-yl)-1H-indazol-5-yl)amino)-2,3-dihydro-1H-indene-5-carbonitrile], the IC50 at LRRK2 G2019S and on LRRK2 WT was < 100 nM in each case.

Take `N#Cc1ccc2c(c1)CC[C@@H]2Nc1ccc2[nH]nc(-c3ccoc3)c2c1` (single isomer, unassigned) [Example 11, enantiomer 1, 1-((3-(Furan-3-yl)-1H-indazol-5-yl)amino)-2,3-dihydro-1H-indene-5-carbonitrile]: the IC50 at LRRK2 G2019S was < 100 nM; at LRRK2 WT, 100 to 1000 nM.

Regarding `N#Cc1ccc2c(c1)CC[C@@H]2Nc1ccc2[nH]nc(-c3cnn(C(F)F)c3)c2c1` (single isomer, unassigned) [Example 12, enantiomer 1, 1-((3-(1-(Difluoromethyl)-1H-pyrazol-4-yl)-1H-indazol-5-yl)amino)-2,3-dihydro-1H-indene-5-carbonitrile], the IC50 on LRRK2 G2019S and on LRRK2 WT was < 100 nM in each case.

For the compound `Cc1cc(C#N)cc2c1[C@@H](Oc1ccc3[nH]nc(-c4cnco4)c3c1)CC2` (single isomer, unassigned) [Example 14, enantiomer 1, 7-Methyl-1-((3-(oxazol-5-yl)-1H-indazol-5-yl)oxy)-2,3-dihydro-1H-indene-5-carbonitrile], the IC50 on LRRK2 G2019S and at LRRK2 WT was < 100 nM each time.

As for `N#Cc1ccc2c(c1)CCC[C@@H]2Nc1ccc2[nH]nc(I)c2c1` (single isomer, unassigned) [Example 15, enantiomer 1, 5-((3-Iodo-1H-indazol-5-yl)amino)-5,6,7,8-tetrahydronaphthalene-2-carbonitrile], the IC50 on LRRK2 G2019S was < 100 nM; on LRRK2 WT, 100 to 1000 nM.
